From patent US20230040770A1, “HETEROCYCLIC COMPOUND AND USE THEREOF” (TAKEDA PHARMACEUTICAL COMPANY LIMITED, priority 2019, published 2023)

Assays:
[1] = target: T1, human orexin type 2 receptor (Homo sapiens, UniProt O43614); test: Measurement of orexin type 2 receptor agonist activity (calcium indicator fluorescence, CHO cells forcibly expressing human OX2 receptor); type: cell-based; conditions: compound at 3 μM; 0% = DMSO, 100% = orexin A (human) 10 nM
T1 construct: expressed in transfected cells
T1 sequence (O43614 1-444): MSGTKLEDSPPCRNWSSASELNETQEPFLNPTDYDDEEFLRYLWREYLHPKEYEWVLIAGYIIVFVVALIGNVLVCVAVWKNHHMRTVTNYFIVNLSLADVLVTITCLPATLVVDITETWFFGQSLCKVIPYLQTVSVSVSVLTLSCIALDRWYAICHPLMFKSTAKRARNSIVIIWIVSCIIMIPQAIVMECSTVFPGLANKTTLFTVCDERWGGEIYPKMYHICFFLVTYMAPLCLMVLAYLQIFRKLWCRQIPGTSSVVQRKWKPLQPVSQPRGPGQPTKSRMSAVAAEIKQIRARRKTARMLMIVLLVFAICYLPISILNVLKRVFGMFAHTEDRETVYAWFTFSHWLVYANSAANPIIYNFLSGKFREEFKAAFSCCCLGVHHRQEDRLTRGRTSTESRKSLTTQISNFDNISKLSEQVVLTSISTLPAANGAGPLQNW
Summary of the method: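 Agonist response normalised between vehicle (0%) and orexin A at 10 nM final (100%), from kinetic Fluo-4 calcium signals recorded for about 2 min after compound addition. Cells: stable human OX2R CHO clone, dye-loaded 30 min at 37 °C plus 30 min at room temperature.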

[2] = Evaluation of microsome stability in human; type: in vitro ADME; conditions: pH 7.4; in vitro intrinsic metabolic clearance; human liver microsomes 0.2 mg/mL, 1 μmol/L test compound, NADPH-generating system
Method: Human liver microsomes were purchased from Xenotech, LLC (Lenexa, Kans.). An incubation mixture consisted of microsomes in 50 mmol/L KH2PO4—K2HPO4 phosphate buffer (pH 7.4) and 1 μmol/L test compound. The concentration of microsomal protein was 0.2 mg/mL. An NADPH-generating system (5 mmol/L MgCl2, 5 mmol/L glucose-6-phosphate, 0.5 mmol/L beta-NADP+ and 1.5 unit/mL glucose-6-phosphate dehydrogenase) was added to the incubation mixture with a half volume of the reaction mixture to initiate the enzyme reaction. The reaction was terminated 15 and 30 minutes after the initiation of the reaction by mixing the reaction mixture with acetonitrile, followed by centrifugation at 2500 rpm for 10 min. The supernatant was subjected to LC/MS/MS analysis. The metabolic rate constant was calculated as the slope of the remaining rate-time plot. The in vitro intrinsic metabolic clearance was calculated by dividing initial metabolic rate constant by microsomal protein in the incubation mixture.

cynomolgus monkeys = test: Evaluation of wake-promoting effects in cynomolgus monkeys (EEG/EMG); type: in vivo, cynomolgus monkey; conditions: Macaca fascicularis, time spent in wakefulness for 4 h after administration, read-out: Wakefulness time (% of vehicle treatment) (Mean); for response vs control in vivo at 3 mg/kg / response vs control in vivo at 10 mg/kg: po; for response vs control in vivo at 3 mg/kg: 3 mg/kg p.o. at ZT12; for response vs control in vivo at 10 mg/kg: 10 mg/kg p.o. at ZT12; for response vs control in vivo at 0.3 mg/kg: 0.3 mg/kg s.c. at ZT12
Method: The wake-promoting effects were evaluated by measuring the electroencephalogram (EEG) and electromyogram (EMG) in cynomolgus monkeys. Under isoflurane anesthesia (1-5%, Pfizer Japan Inc., Tokyo, Japan), male cynomolgus monkeys (3-5 years old, Hamri Co., Ltd., Ibaraki, Japan) were surgically implanted with radio-telemetry transmitters (TL10M3-D70-EEE, Data Sciences International Inc., MN, USA). EEG electrodes were screwed into the skull at the parietal area. EMG electrodes were implanted on the cervical muscles. After the surgery, each monkey was given penicillin (100,000 units/head, i.m., Meiji Seika Pharma Co., Ltd., Tokyo, Japan), buprenorphine (0.02 mg/kg, i.m., Otsuka Pharmaceutical Co., Ltd., Tokyo, Japan) and prednisolone (1 mg/kg, s.c., Kyoritsu Seiyaku Co., Ltd., Tokyo, Japan) daily for one week. After at least a 1-month recovery period in home cages, the monkeys were habituated to the recording chamber placed in a soundproof room. EEG and EMG signals were recorded using the telemetry system (Dataquest ART software, Data Sciences International Inc., MN, USA) and the signals were analyzed using SleepSign software (Kissei Comtec Co., Ltd., Nagano, Japan). After confirming long sleep in dark phase in the experimental room, we used animals to examine the wake-promoting effect of compounds.
Oral test compounds (3 or 10 mg/kg) suspended in 0.5% methylcellulose aqueous solution, or vehicle (i.e., 0.5% methylcellulose aqueous solution) was administered orally (p.o.) to monkeys at zeitgeber time 12 (ZT12) in a volume of 5 mL/kg body weight in cross-over design or pre-post design (n=1-4). EEG and EMG recordings were performed for 4 h after the compound administration. The time spent in wakefulness for 4 h after administration (% of vehicle treatment) was calculated by using SleepSign.
Parenteral test compounds (0.1 or 0.3 mg/kg) dissolved in a mixed solution comprising 5% DMSO, 5% Cremophor EL, 20% PEG400 and 70% soluplus (1% (w/v)), or vehicle (i.e., a mixed solution comprising 5% DMSO, 5% Cremophor EL, 20% PEG400 and 70% soluplus (1% (w/v))) was administered subcutaneously (s.c.) to monkeys at ZT12 in a volume of 0.5 mL/kg body weight in a pre-post design (n=1-2). EEG and EMG recordings were performed for 4 h after the compound administration. The time spent in wakefulness for 4 h after administration (% of vehicle treatment) was calculated by using SleepSign.

| SMILES | OX2R agonist activity (3 μM, %) [1] | microsomal CLint at 1 μmol/L [2] | response vs control in vivo at 3 mg/kg (cynomolgus monkeys) | response vs control in vivo at 10 mg/kg (cynomolgus monkeys) | response vs control in vivo at 0.3 mg/kg (cynomolgus monkeys; sc) | response vs control in vivo at 0.1 mg/kg (cynomolgus monkeys; sc, 0.1 mg/kg s.c. at ZT12) |
| --- | --- | --- | --- | --- | --- | --- |
| CCS(=O)(=O)N[C@@H]1[C@H](Cc2cccc(-c3cccc(F)c3)c2F)N(C(=O)[C@H]2CCO2)CC1(F)F [Example 1, N-[(2S,3R)-2-[(2,3′-difluoro[1,1′-biphenyl]-3-yl)methyl]-4,4-difluoro-1-((2R)-oxetane-2-carbonyl)pyrrolidin-3-yl]ethanesulfonamide] | 100% | 75 µL/min/mg | 234% | – | – | – |
| CCS(=O)(=O)N[C@@H]1[C@H](Cc2cccc(-c3ccccc3)c2F)N(C(=O)C(C)(C)O)CC1(F)F [Example 5, N-[(2S,3R)-4,4-difluoro-2-[(2-fluoro[1,1′-biphenyl]-3-yl)methyl]-1-(2-hydroxy-2-methylpropanoyl)pyrrolidin-3-yl]ethanesulfonamide] | 117% | 12 µL/min/mg | – | 412% | – | – |
| CCS(=O)(=O)N[C@@H]1[C@H](Cc2cccc(-c3cccc(F)c3F)c2F)N(C(=O)C(C)(C)O)CC1(F)F [Example 66, N-{(2S,3R)-4,4-difluoro-1-(2-hydroxy-2-methylpropanoyl)-2-[(2,2′,3′-trifluoro[1,1′-biphenyl]-3-yl)methyl]pyrrolidin-3-yl}ethanesulfonamide] | 104% | 61 µL/min/mg | 463% | – | – | – |
| CCS(=O)(=O)N[C@@H]1[C@H](Cc2cccc(-c3cc(F)ccc3F)c2F)N(C(=O)C(C)(C)O)CC1(F)F [Example 67, N-{(2S,3R)-4,4-difluoro-1-(2-hydroxy-2-methylpropanoyl)-2-[(2,2′,5′-trifluoro[1,1′-biphenyl]-3-yl)methyl]pyrrolidin-3-yl}ethanesulfonamide] | 111% | 4 µL/min/mg | 356% | – | – | – |
| CCS(=O)(=O)N[C@@H]1[C@H](Cc2cccc(-c3cccc(F)c3)c2F)N(C(=O)C(C)C)CC1(F)F [Example 94, N-[(2S,3R)-2-[(2,3′-difluoro[1,1′-biphenyl]-3-yl)methyl]-4,4-difluoro-1-(2-methylpropanoyl)pyrrolidin-3-yl]ethanesulfonamide] | 99% | 44 µL/min/mg | 442% | – | – | – |
| CCS(=O)(=O)N[C@@H]1[C@H](Cc2cccc(-c3cc(F)cc(F)c3)c2F)N(C(=O)C(C)C)CC1(F)F [Example 146, N-{(2S,3R)-4,4-difluoro-1-(2-methylpropanoyl)-2-[(2,3′,5′-trifluoro[1,1′-biphenyl]-3-yl)methyl]pyrrolidin-3-yl}ethanesulfonamide] | 92% | 83 µL/min/mg | 426% | – | – | – |
| Cc1cccc(-c2cccc(C[C@H]3[C@@H](NS(=O)(=O)N(C)C)[C@@H](F)CN3C(=O)C3(O)CCC3)c2F)c1 [Example 462, N′-[(2S,3R,4S)-4-fluoro-2-[(2-fluoro-3′-methyl[1,1′-biphenyl]-3-yl)methyl]-1-(1-hydroxycyclobutane-1-carbonyl)pyrrolidin-3-yl]-N,N-dimethylsulfuric diamide] | 78% | – | – | – | 365% | – |
| Cc1cccc(-c2cccc(C[C@H]3[C@@H](NS(=O)(=O)N(C)C)[C@@H](F)CN3C(=O)N3CCC3)c2F)c1 [Example 463, N′-{(2S,3R,4S)-1-(azetidine-1-carbonyl)-4-fluoro-2-[(2-fluoro-3′-methyl[1,1′-biphenyl]-3-yl)methyl]pyrrolidin-3-yl}-N,N-dimethylsulfuric diamide] | 79% | – | – | – | – | 483% |

Now from value to compound, other results behind:

| OX2R agonist activity (3 μM, %) [1] | microsomal CLint at 1 μmol/L [2] | SMILES | response vs control in vivo at 3 mg/kg (cynomolgus monkeys) | response vs control in vivo at 10 mg/kg (cynomolgus monkeys) | response vs control in vivo at 0.3 mg/kg (cynomolgus monkeys; sc) | response vs control in vivo at 0.1 mg/kg (cynomolgus monkeys; sc, 0.1 mg/kg s.c. at ZT12) |
| --- | --- | --- | --- | --- | --- | --- |
| 106% | 40 µL/min/mg | CC(C)(O)C(=O)N1CC(F)(F)[C@H](NS(C)(=O)=O)[C@@H]1Cc1cccc(-c2cc(F)cc(F)c2)c1F [Example 2, N-{(2S,3R)-4,4-difluoro-1-(2-hydroxy-2-methylpropanoyl)-2-[(2,3′,5′-trifluoro[1,1′-biphenyl]-3-yl)methyl]pyrrolidin-3-yl}methanesulfonamide] | 600% | – | – | – |
| 95% | 135 µL/min/mg | CCS(=O)(=O)N[C@@H]1[C@H](Cc2cccc(-c3cc(F)cc(F)c3)c2F)N(C(=O)[C@H]2CCO2)CC1(F)F [Example 56, N-{(2S,3R)-4,4-difluoro-1-((2R)-oxetane-2-carbonyl)-2-[(2,3′,5′-trifluoro[1,1′-biphenyl]-3-yl)methyl]pyrrolidin-3-yl}ethanesulfonamide] | 417% | – | – | – |
| 93% | 9 µL/min/mg | CS(=O)(=O)N[C@@H]1[C@H](Cc2cccc(-c3cc(F)cc(F)c3)c2F)N(C(=O)C23CC(C2)C3)CC1(F)F [Example 87, N-{(2S,3R)-1-(bicyclo[1.1.1]pentane-1-carbonyl)-4,4-difluoro-2-[(2,3′,5′-trifluoro[1,1′-biphenyl]-3-yl)methyl]pyrrolidin-3-yl}methanesulfonamide] | 832% | – | – | – |
| 94% | 65 µL/min/mg | CS(=O)(=O)N[C@@H]1[C@H](Cc2cccc(-c3cc(F)cc(F)c3)c2F)N(C(=O)[C@H]2CCO2)CC1(F)F [Example 91, N-{(2S,3R)-4,4-difluoro-1-((2R)-oxetane-2-carbonyl)-2-[(2,3′,5′-trifluoro[1,1′-biphenyl]-3-yl)methyl]pyrrolidin-3-yl}methanesulfonamide] | – | 548% | – | – |
| 88% | 13 µL/min/mg | CCS(=O)(=O)N[C@@H]1[C@H](Cc2cccc(-c3cc(F)cc(F)c3)c2F)N(C(=O)C2CC2)CC1(F)F [Example 144, N-{(2S,3R)-1-(cyclopropanecarbonyl)-4,4-difluoro-2-[(2,3′,5′-trifluoro[1,1′-biphenyl]-3-yl)methyl]pyrrolidin-3-yl}ethanesulfonamide] | 649% | – | – | – |
| 100% | – | CN(C)S(=O)(=O)N[C@@H]1[C@H](Cc2cccc(-c3cc(F)cc(F)c3)c2F)N(C(=O)[C@H]2CCO2)CC1(F)F [Example 542, N′-{(2S,3R)-4,4-difluoro-1-[(2R)-oxetane-2-carbonyl]-2-[(2,3′,5′-trifluoro[1,1′-biphenyl]-3-yl)methyl]pyrrolidin-3-yl}-N,N-dimethylsulfuric diamide] | – | – | 505% | – |
